Assays:
[1] = Drug release from heat-molded pellets/articles in release buffer (PBS, 1% FBS in PBS or 100% FBS) at 37° C., HPLC quantification; assay type: physicochemical; conditions: for Drug release from heat molded pellets: pellets 1 mm×1 mm
Method: Samples were incubated at 37° C. on a shaker rotating at 115 rpm. After 1 day, 3 days, 7 days, and subsequently in alternating 3 and 4 day intervals (i.e., 1, 3, 7, 10, 14 days etc.), release buffer was sampled directly (PBS) or syringe filtered, proteins were precipitated with acetonitrile, and drug release products were extracted. The samples were analyzed by high performance liquid chromatography (HPLC) to quantify drug products.

[2] = Ethylene oxide (ETO) gas sterilization of heat-molded pellets, purity by HPLC and drug release pre- and post-ETO; assay type: physicochemical; conditions: ETO gas at 55° C.
[3] = test system: joint of a subject suffering from inflammation, e.g., arthritis; test: Microparticles and nanoparticles injected into the joint of a subject suffering from inflammation; assay type: in vivo
Source text: Microparticles and nanoparticles are formed from Compound 1 according to the methods described in above. […] Local inflammation in the joint of the subject is reduced. Similarly, the other compounds of the disclosure can likewise be used to form micro- and nanoparticles and injected into the joint of a subject for the purposes of treating, e.g., inflammation, and the drug is released at a steady rate over several months (e.g., three months).

## Fusidic Acid-Triethylene Glycol-Fusidic Acid (carbonate ester) [Compound 9]
[1]; 100% FBS
  Speed of drug release compared to other drug dimers with triethylene glycol linker: release very quickly

## C[C@@H]1C[C@H]2[C@@H]3CCC4=CC(=O)C=C[C@]4(C)[C@@]3(F)[C@@H](O)C[C@]2(C)[C@@]1(O)C(=O)COC(=O)OCCOCCOCCOC(=O)OCC(=O)[C@@]1(O)[C@H](C)C[C@H]2[C@@H]3CCC4=CC(=O)C=C[C@]4(C)[C@@]3(F)[C@@H](O)C[C@@]21C [Compound 1, Dexamethasone-Triethylene Glycol-Dexamethasone]
[2]; pre- vs post-sterilization
  Change in pellet purity due to ETO sterilization (HPLC): no changes
[2]; release in 1% FBS in PBS or 100% FBS
  Change in release properties due to ETO sterilization: no changes
[1]; 100% FBS, 37° C.
  Mechanism of drug release from pellets (representative images over time): surface erosion
[1]; over the course of 12 weeks or more, FIGS. 1E, 12E, 15C, 17D
  Dexamethasone release profile from articles: generally linear
FIG. 1F (100% FBS)
  Shape of pellets during surface erosion: maintaining their shape
Physiologically relevant conditions
  Physical form (shape) changes of articles: do not
[3]
  Local inflammation in the joint of the subject: reduced
  Release of drug into the subject from injected micro- and nanoparticles: steady rate over three months

## Cholesterol-Triethylene Glycol-Cholesterol [Compound 14]
[1]; 100% FBS, 37° C.
  Drug release from heat molded pellets: no drug was released
[1]; PBS, 37° C.
  Drug release from heat molded pellets: no drug was released

## Hydrocortisone-Triethylene Glycol-Hydrocortisone [Compound 2]
[1]; 100% FBS
  Speed of drug release compared to other drug dimers with triethylene glycol linker: release very quickly

## Fusidic Acid-Triethylene Glycol-Fusidic Acid (ester) [Compound 15]
[1]; 100% FBS, 37° C.
  Drug release from heat molded pellets: no drug was released
[1]; PBS, 37° C.
  Drug release from heat molded pellets: no drug was released

## Ethinylestradiol-Triethylene Glycol-Ethinylestradiol [Compound 16]
[1]; 100% FBS, 37° C.
  Drug release from heat molded pellets: no drug was released
[1]; PBS, 37° C.
  Drug release from heat molded pellets: no drug was released
